What all share (type): cell-based
The target of one assay is T1, PLK1 (Homo sapiens, UniProt P53350).
T1 construct: endogenous in cells; host or cells: HeLa LgBit (Plk1-HiBit KI): HeLa stably expressing LgBit, with a CRISPR/Cas9 knock-in of HiBit at the endogenous PLK1 locus
The experiment in a line: Luciferase assay for PLK1 in HeLa LgBit (Plk1-HiBit KI) cell line. Particulars: 300 nM compound, luminescence after 9 hours. The method in brief:
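HeLa LgBit cells with endogenous PLK1 C-terminally HiBit-tagged by CRISPR knock-in; released from 24 h 2 mM thymidine block, seeded, grown 18 h. Compounds at 300 nM with Endurazine substrate; luminescence (470-480 nm) tracked in real time, expressed as ratio to DMSO.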
In general terms: With HiBiT, luminescence reflects the tagged protein that the partner subunit can reach.

In a further assay the test system is NCI-H526 cell line. The experiment in a line: Cell viability assay for NCI-H526 cell line (EZ-Cytox). Particulars: Homo sapiens, NCI-H526, 120 h; H526 cells, 5 days, 3000 nM to 0.46 nM. The method in brief:
(§1)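 Human SCLC lines cultured with compound for 5 days in a CO2 incubator; viability read by EZ-Cytox absorbance at 450 nm after 3 min shaking. IC50 reported in activity bins (A: <30 nM up to E: <400 nM).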

For the next assay, the system named is NCI-H69 cell line. The experiment in a line: Cell viability assay for NCI-H69 cell line (EZ-Cytox). To be noted: Homo sapiens, NCI-H69, 120 h; H69 cells, 5 days, 3000 nM to 0.46 nM. The procedure, abridged:
as §1

Another assay has as its system MRC-5 cell line. The experiment in a line: Cell viability assay for MRC-5 cell line (EZ-Cytox). Particulars: Homo sapiens, MRC5, 120 h; MRC-5 normal cell line, 5 days, 10000 nM to 1.52 nM; read-out: Activity: IC50 value, cell viability, MRC-5 cell line (Exemplary Compounds). Here is the method:
4. Cell Viability Assay for MRC-5 Cell Line
(1) Culture of MRC-5 Cell Line
The MRC-5 cell line was purchased from KCLB. Passage of cultured cells was maintained within P15.
(2) Treatment of Compounds of the Present Invention
Then, it was cultured in 37° C. CO2 incubator (Thermo Fisher Scientific) for 5 days.
(3) Cytotoxicity Experiment
CO2 incubator for 4 hours.

T1 sequence (P53350 whole entry): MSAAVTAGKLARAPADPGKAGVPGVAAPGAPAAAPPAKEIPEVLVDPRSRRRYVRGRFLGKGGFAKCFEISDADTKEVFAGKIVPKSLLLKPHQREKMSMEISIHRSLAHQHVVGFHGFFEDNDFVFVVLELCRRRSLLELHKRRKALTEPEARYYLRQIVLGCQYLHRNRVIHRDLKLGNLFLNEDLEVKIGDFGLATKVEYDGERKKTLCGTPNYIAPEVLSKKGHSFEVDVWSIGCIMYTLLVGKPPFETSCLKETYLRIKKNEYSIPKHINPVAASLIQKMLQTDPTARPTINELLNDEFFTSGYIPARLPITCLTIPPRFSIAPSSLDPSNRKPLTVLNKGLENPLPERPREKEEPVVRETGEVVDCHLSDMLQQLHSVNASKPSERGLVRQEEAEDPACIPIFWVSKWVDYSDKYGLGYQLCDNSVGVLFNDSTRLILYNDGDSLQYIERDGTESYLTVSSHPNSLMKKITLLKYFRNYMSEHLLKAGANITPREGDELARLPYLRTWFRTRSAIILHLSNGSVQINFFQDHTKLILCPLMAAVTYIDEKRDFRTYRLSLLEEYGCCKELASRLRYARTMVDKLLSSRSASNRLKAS

Consider `COc1cc(C(=O)NN2CCC(CCN3CCN(c4cc(C)c(NC5CCC(=O)NC5=O)cc4F)CC3)CC2)ccc1Nc1ncc2c(n1)N(C(C)C)CC(F)(F)C(=O)N2C` (stereo not drawn) [Compound 75, 4-((7,7-difluoro-9-isopropyl-5-methyl-6-oxo-6,7,8,9-tetrahydro-5H-pyrimido[4,5-b][1,4]diazepin-2-yl)amino)-N-(4-(2-(4-(4-((2,6-dioxopiperidin-3-yl)amino)-2-fluoro-5-methylphenyl)piperazin-1-yl)ethyl)piperidin-1-yl)-3-methoxybenzamide], for which, on PLK1, the “Activity: ratio of the luminescence value of compound treatment group to DMSO treatment group” value (“Activity: ratio” below) is “+++ (+++: <0.3)”. Moreover, the results for the IC50 in the assay with NCI-H526 cell line, in the assay on NCI-H69 cell line and in the assay on MRC-5 cell line were below 30 nM, below 30 nM and above 10 µM, respectively.

As for `COc1cc(C(=O)NN2CCC(CCN3CCN(c4cc(C#N)c(NC5CCC(=O)NC5=O)cc4F)CC3)CC2)ccc1Nc1ncc2c(n1)N(C1CCCC1)CC(F)(F)C(=O)N2C` (stereo not drawn) [Compound 76, N(4-(2-(4-(5-cyano-4-((2,6-dioxopiperidin-3-yl)amino)-2-fluorophenyl)piperazin-1-yl)ethyl)piperidin-1-yl)-4-((9-cyclopentyl-7,7-difluoro-5-methyl-6-oxo-6,7,8,9-tetrahydro-5H-pyrimido[4,5-b][1,4]diazepin-2-yl)amino)-3-methoxybenzamide], the “Activity: ratio” value on PLK1 is recorded as “++ (++: <0.5)”. The IC50 was below 30 nM in the assay on NCI-H526 cell line, below 30 nM with NCI-H69 cell line and above 10 µM in the assay with MRC-5 cell line.

As for `COc1cc(C(=O)NN2CCC(CCN3CCN(c4ccc(NC5CCC(=O)NC5=O)nc4)CC3)CC2)ccc1Nc1ncc2c(n1)N(C1CCCC1)CC(F)(F)C(=O)N2C` (stereo not drawn) [Compound 77, 4-((9-cyclopentyl-7,7-difluoro-5-methyl-6-oxo-6,7,8,9-tetrahydro-5H-pyrimido[4,5-b][1,4]diazepin-2-yl)amino)-N-(4-(2-(4-(6-((2,6-dioxopiperidin-3-yl)amino)pyridin-3-yl)piperazin-1-yl)ethyl)piperidin-1-yl)-3-methoxybenzamide], the “Activity: ratio” value on PLK1 was “++ (++: <0.5)”. Further, the IC50 in the assay on NCI-H526 cell line was below 30 nM; with NCI-H69 cell line it was below 30 nM; in the assay with MRC-5 cell line, above 10 µM.

Usually IC50 stands for the concentration that inhibits the measured activity by half.

Source of the values: patent US20260273072A1, “NOVEL PLK1 DEGRADATION INDUCING COMPOUND” (UPPTHERA, INC., priority 2023, published 2026).
